Measurements: patent US9468209B2, “Method for eradicating weeds with derivatives of 3-acetyl-5-sec-butyl-4-hydroxy-3-pyrrolin-2-one” (priority 2012, dated 2016)

Columns and labels:
Hill reaction = Hill reaction activity of treated Crofton weed leaves; assay type: biochemical; conditions: 50 μg/mL, strong light 12 hours
Protocol: (§1) Compounds 10-57 were dissolved in small amount of methanol. The solutions were then diluted with distilled water to a concentration of 50 μg/mL. A mixture of methanol and water in the same ratio as the sample solution was also prepared and used as control in the experiment. The healthy leaves of Crofton weed were washed in water for 30 minutes and then rinsed with distilled water. The clean and tissue dried leaves were placed in petri dish with the back-side of the leaves facing up. Wet filter paper was also placed in the in petri dish for moisture control. Water, methanol and chemical solutions of the analogues were applied to the back-side of each leaf. Test sample was then placed in vacuum chamber at 25° C. for 15 min followed by exposure to the strong light (400 μM m^−2 s^−1) for 12 hours. The leaf sample went through a series of test, and the Hill reaction rate, the electron transfer activity and fluorescence of chlorophyll were measured. Four leaves were used for each treatment and each test was repeated three times.

[1] = test system: fluorescence of chlorophyll; assay: Fluorescence of chlorophyll of treated Crofton weed leaves; assay type: biochemical; conditions: 50 μg/mL, strong light 12 hours
Protocol: as §1

Crofton weed = assay: Needle puncture pathogenic test on slightly wounded leaf of Crofton weed; assay type: in vivo; conditions: Crofton weed leaf, 50 μg/mL, 25° C., natural light
Protocol: 3-acetyl-5-sec-butyl-4-hydroxy-3-pyrrolin-2-one analogs were dissolved in a small amount of methanol and diluted with water to a concentration of 5-100 μg/g. A pathogenic test was conducted by placing the toxic liquid on the slightly wounded leaf of Crofton weed with a needle. The test has shown that the pathogenic capability of 3-acetyl-5-sec-butyl-4-hydroxy-3-pyrrolin-2-one analogs with respect to Crofton weed increases with the increase of concentration. The spot diameter caused on the leaf of Crofton weed after 24 hours was 2 mm at 50 μg/g.
3-acetyl-5-sec-butyl-4-hydroxy-3-pyrrolin-2-one analogue (Table 3, compounds 10-57) was dissolved in small amount of methanol. The solution was then diluted with distilled water to a concentration of 50 μg/mL. Methanol solution with same concentration and pure distilled water were used as control of the experiment. A pathogenic test was conducted by placing the toxic liquid on the slightly wounded leaf of Crofton weed with a needle. The experiment was carried out at 25° C. under the natural light and each test was repeated 6 times. It was measure the diameter of the spot after 24 h. […] The size of the side chain also has an effect on their activity.
Fourteen salts of 3-acetyl-5-sec-butyl-4-hydroxy-3-pyrrolin-2-one analogs were dissolved in small amount of methanol and diluted with distilled water to a concentration of 50 μg/mL. Methanol/water mixture was also prepared and used as control. Needle puncture method was used for the test on the small pieces of Crofton weed. Each treatment was repeated six times or more. The test samples were kept under natural light at 25° C. for 24 hours. The diameters of damaged spot of the plant leaves were measured by vernier caliper.

photosystem II = assay: PSII oxygen evolution / electron transfer activity of treated Crofton weed leaves; assay type: biochemical; conditions: 50 μg/mL, strong light 12 hours
Protocol: as §1

Structure (SMILES)	Activity of Hill Reaction (Hill reaction) [uMO2/mgChlh]	Fv/Fm [1]	Time of Disease spot (Crofton weed) [h]	Average diameter of spot after 24 h (Crofton weed) [mm]	PSII Activity of oxygen evolution (photosystem II) [uMO2/mgChlh]
CC(=O)C1=C(O)C(CCC(C)C)NC1=O (centres unmarked) [Compound 33]	51.94	0.79	13.5 ± 0.75	4.17 ± 1.15	26.54
CC(=O)C1=C(O)C(CC(=O)O)NC1=O (centres unmarked) [Compound 34]	65.73	0.81	24.0 ± 0.02	1 ± 0.86	35.11
CCCC(C#N)C1NC(=O)C(C(C)=O)=C1O (centres unmarked) [Compound 38]	64.69	0.81	13.6 ± 0.50	9.82 ± 0.02	40.41
CC(=O)C1=C(O)C(C(C)C)NC1=O (centres unmarked) [Compound 39]	62.72	0.80	16.5 ± 2.15	4.89 ± 0.37	33.79
CSCCC1NC(=O)C(C(C)=O)=C1O (centres unmarked) [Compound 41]	59.07	0.83	20.8 ± 3.00	2.45 ± 0.24	41.32
CCC(C)C1NC(=O)C(C(=O)CCCl)=C1O (centres unmarked) [Compound 43]	63.35	0.83	20.1 ± 1.15	2.30 ± 0.28	47.80
CCOCCC(=O)C1=C(O)C(C(C)CC)NC1=O (centres unmarked) [Compound 45]	41.00	0.79	20.3 ± 0.57	2.73 ± 0.73	27.04
CCC(C)C1NC(=O)C(C(=O)OCCc2ccccc2)=C1O (centres unmarked) [Compound 46]	58.78	0.82	22.1 ± 1.35	2.31 ± 0.44	43.67
CCC(C)C1NC(=O)C(C(=O)CCOc2ccccc2)=C1O (centres unmarked) [Compound 47]	67.99	0.82	21.2 ± 1.88	2.12 ± 0.09	49.01
CCC(C)C1NC(=O)C(C(=O)Cc2ccccc2)=C1O (centres unmarked) [Compound 51]	52.23	0.81	15.1 ± 1.82	3.28 ± 1.12	32.15
CCC(C)C1NC(=O)C(C(=O)Cc2ccc([N+](=O)[O-])cc2)=C1O (centres unmarked) [Compound 52]	53.13	0.82	15.3 ± 1.72	3.83 ± 1.03	36.86
CCCCCC(C#N)C1NC(=O)C(=C(C)O)C1=O (centres unmarked) [Compound 54]	43.65	0.81	11.30 ± 0.73	8.211 ± 0.101	31.98
CC(=O)C1C(=O)NC(C)C1=O (centres unmarked) [Compound 57]	63.42	0.82	20.4 ± 0	1.98 ± 0.51	35.13
